Here are results for six compounds from ChEMBL document CHEMBL1141062, “Synthesis and evaluation of tricyclic pyrrolopyrimidinones as dipeptide mimetics: inhibition of interleukin-1beta-converting enzyme” (Bioorg Med Chem Lett, 2005).

The structures appear in SMILES notation.

Assay [1] concerns THP-1. In words: Inhibitory concentration against IL-1b production in THP-1 cells. Type of assay: functional, cell-based. The following applies: Homo sapiens.
The target of assay [2] is Caspase-8 (Homo sapiens, UniProt Q14790). In words: Inhibitory activity towards CASP8 using fluorogenic substrates following an incubation for over 30 min at 37 degree C.
Sequence of Caspase-8 (Q14790 217-374 limits assumed): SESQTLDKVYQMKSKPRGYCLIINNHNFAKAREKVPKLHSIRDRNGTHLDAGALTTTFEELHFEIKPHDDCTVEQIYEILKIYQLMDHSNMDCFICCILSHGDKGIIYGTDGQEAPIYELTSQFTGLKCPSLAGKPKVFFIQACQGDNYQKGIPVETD
Sequence of Caspase-8 (Q14790 385-479 limits assumed): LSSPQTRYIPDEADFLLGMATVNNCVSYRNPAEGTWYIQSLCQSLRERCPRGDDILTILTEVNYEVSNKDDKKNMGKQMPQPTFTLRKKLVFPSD
For assay [3], the target named is T1, Caspase-1 (Homo sapiens, UniProt P29466).
T1 sequence (P29466 whole entry): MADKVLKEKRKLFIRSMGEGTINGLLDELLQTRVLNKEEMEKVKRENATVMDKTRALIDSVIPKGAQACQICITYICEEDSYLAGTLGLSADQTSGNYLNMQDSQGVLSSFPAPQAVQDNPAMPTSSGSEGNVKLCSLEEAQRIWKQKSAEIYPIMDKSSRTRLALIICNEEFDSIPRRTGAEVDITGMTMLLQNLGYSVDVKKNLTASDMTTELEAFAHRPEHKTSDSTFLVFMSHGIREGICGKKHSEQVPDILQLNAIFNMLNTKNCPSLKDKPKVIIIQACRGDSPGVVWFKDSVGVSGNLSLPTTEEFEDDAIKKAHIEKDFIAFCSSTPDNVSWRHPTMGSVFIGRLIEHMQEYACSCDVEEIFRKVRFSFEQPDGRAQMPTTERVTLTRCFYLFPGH
In words: Inhibitory activity towards CASP1 using fluorogenic substrates following an incubation for over 30 min at 37 degree C.

The target in assay [4] is T2, Caspase-3 (Homo sapiens, UniProt P42574).
T2 sequence (P42574 whole entry): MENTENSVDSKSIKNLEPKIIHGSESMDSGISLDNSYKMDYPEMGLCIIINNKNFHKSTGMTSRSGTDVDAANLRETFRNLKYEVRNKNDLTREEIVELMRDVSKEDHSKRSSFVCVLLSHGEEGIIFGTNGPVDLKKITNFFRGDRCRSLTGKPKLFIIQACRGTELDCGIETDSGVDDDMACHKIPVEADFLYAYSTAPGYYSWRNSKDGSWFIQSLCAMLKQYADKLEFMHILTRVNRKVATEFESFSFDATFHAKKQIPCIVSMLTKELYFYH
In words: Inhibitory activity towards CASP3 using fluorogenic substrates following an incubation for over 30 min at 37 degree C.

For `O=C1C[C@H](NC(=O)[C@@H]2CCc3nc4ccccc4c(=O)n32)C(O)O1` (some centres undefined), the IC50 (commonly the concentration that gives 50% inhibition) in assay [1] was 10000 nM; in assay [2], 10000 nM; in assay [3], 4580 nM; in assay [4], 10000 nM.
With `O=C1C[C@H](NC(=O)[C@@H]2CCc3nc4cc(-c5ccc(Cl)cc5)nc-4c(O)n32)C(O)O1` (some centres undefined), the IC50 came to 830 nM in assay [1], 4810 nM in assay [2], 97 nM in assay [3] and 10000 nM in assay [4].
As for `O=C1C[C@H](NC(=O)[C@@H]2CCc3nc4cc(-c5cccc(Cl)c5)nc-4c(O)n32)C(O)O1` (some centres undefined), the half-maximal inhibitory concentration (IC50) in assay [1] was found to be 529 nM; in assay [2], 1820 nM; in assay [3] it was 55 nM; in assay [4], 4390 nM.
On the same counts, the results for `CC(C)(C)c1cc2nc3n(c(O)c-2n1)[C@H](C(=O)N[C@H]1CC(=O)OC1O)CC3` (some centres undefined) are 975 nM, 7540 nM, 421 nM and 2290 nM.
`O=C1C[C@H](NC(=O)[C@@H]2CCc3nc4cc(-c5ccccc5Cl)nc-4c(O)n32)C(O)O1` (some centres undefined): the IC50 came to 252 nM in assay [1], 336 nM in assay [2], 14 nM in assay [3] and 1840 nM in assay [4].
As to `O=C1C[C@H](NC(=O)[C@@H]2CCc3nc4cc(-c5ccccc5)nc-4c(O)n32)C(O)O1` (some centres undefined), the IC50 in assay [1] was found to be 1060 nM; in assay [2] it was 3050 nM; in assay [3] it was 264 nM; in assay [4], 10000 nM.
